Source: US20240158348A1, “HERBICIDAL CYCLIC AMIDES N-SUBSTITUTED WITH A HALOALKYLSULFONYLANILIDE GROUP” (FMC Corporation, priority 2021, published 2024)

Columns and labels:
Format in all cases: in vivo
[1] = system: goosegrass (Eleusine indica); test: Test C preemergence, goosegrass; conditions: 0 is no effect, 100 is complete control
Source text: (§1) Seeds of plant species selected from blackgrass (Alopecurus myosuroides), corn (Zea mays), foxtail, giant (giant foxtail, Setaria faberi), goosegrass (Eleusine indica), kochia (Bassia scoparia), oat, wild (wild oat, Avena fatua), pigweed, palmer (palmer amaranth, Amaranthus palmeri), ragweed (common ragweed, Ambrosia artemisiifolia), ryegrass, Italian (Italian ryegrass, Lolium multiflorum), soybean (Glycine max) and wheat (Triticum aestivum) were planted into a blend of loam soil and sand and treated preemergence with a directed soil spray using test chemicals formulated in a non-phytotoxic solvent mixture which included a surfactant.
(§2) At the same time, plants selected from these crop and weed species and also galium (catchweed bedstraw, Galium aparine) and horseweed (Erigeron canadensis) were planted in pots containing the same blend of loam soil and sand and treated with postemergence applications of test chemicals formulated in the same manner. Plants ranged in height from 2 to 10 cm and were in the one- to two-leaf stage for the postemergence treatment. Treated plants and untreated controls were maintained in a greenhouse for 10 or 12 days, after which time all treated plants were compared to untreated controls and visually evaluated for injury. Plant response ratings, summarized in Table A, are based on a 0 to 100 scale where 0 is no effect and 100 is complete control. A dash (-) response means no test result.

[2] = system: wheat (Triticum aestivum); test: Test C postemergence, wheat; conditions: visual injury, 0 to 100 scale (0 no effect, 100 complete control)
Source text: as §1, §2

[3] = system: oat, wild (wild oat, Avena fatua); test: Test C postemergence, wild oat; conditions: visual injury, 0 to 100 scale (0 no effect, 100 complete control)
Source text: as §1, §2

[4] = system: foxtail, giant (giant foxtail, Setaria faberi); test: Test C preemergence, giant foxtail; conditions: 0 is no effect, 100 is complete control
Source text: as §1, §2

corn (Zea mays) [5] = test: Test C preemergence, corn; conditions: 0 is no effect, 100 is complete control
Source text: as §1, §2

[6] = system: foxtail, giant (giant foxtail, Setaria faberi); test: Test C postemergence, giant foxtail; conditions: visual injury, 0 to 100 scale (0 no effect, 100 complete control)
Source text: as §1, §2

[7] = system: oat, wild (wild oat, Avena fatua); test: Test C preemergence, wild oat; conditions: 0 is no effect, 100 is complete control
Source text: as §1, §2

[8] = system: ryegrass, Italian (Italian ryegrass, Lolium multiflorum); test: Test C postemergence, Italian ryegrass; conditions: visual injury, 0 to 100 scale (0 no effect, 100 complete control)
Source text: as §1, §2

[9] = system: horseweed (Erigeron canadensis); test: Test C postemergence, horseweed; conditions: visual injury, 0 to 100 scale (0 no effect, 100 complete control)
Source text: as §1, §2

[10] = system: ryegrass, Italian (Italian ryegrass, Lolium multiflorum); test: Test C preemergence, Italian ryegrass; conditions: 0 is no effect, 100 is complete control
Source text: as §1, §2

[11] = system: goosegrass (Eleusine indica); test: Test C postemergence, goosegrass; conditions: visual injury, 0 to 100 scale (0 no effect, 100 complete control)
Source text: as §1, §2

[12] = system: ragweed (common ragweed, Ambrosia artemisiifolia); test: Test C preemergence, ragweed; conditions: 0 is no effect, 100 is complete control
Source text: as §1, §2

kochia (Bassia scoparia) [13] = test: Test C postemergence, kochia; conditions: visual injury, 0 to 100 scale (0 no effect, 100 complete control)
Source text: as §1, §2

[14] = system: sedge, umbrella (small-flower umbrella sedge, Cyperus difformis); test: Test D flooded paddy test, umbrella sedge; design: key: 0 = no effect, 100 = complete control; conditions: 250 g ai/ha, Flood; applied to paddy water at 2-leaf stage; visual rating after 13 days; scale 0 (no effect) to 100 (complete control)
Procedure: (§3) Plant species in the flooded paddy test selected from barnyardgrass (Echinochloa crusgalli), ducksalad (Heteranthera limosa), rice (Oryza sativa), and sedge, umbrella (small-flower umbrella sedge, Cyperus difformis) were grown to the 2-leaf stage for testing. At time of treatment, test pots were flooded to 3 cm above the soil surface, treated by application of test compounds directly to the paddy water, and then maintained at that water depth for the duration of the test. Treated plants and controls were maintained in a greenhouse for 13 days, after which time all species were compared to controls and visually evaluated. Plant response ratings, summarized in Table B, are based on a scale of 0 to 100 where 0 is no effect and 100 is complete control. A dash (-) response means no test result.

[15] = system: pigweed, palmer (palmer amaranth, Amaranthus palmeri); test: Test C preemergence, palmer amaranth; conditions: 0 is no effect, 100 is complete control
Source text: as §1, §2

[16] = system: wheat (Triticum aestivum); test: Test C preemergence, wheat; conditions: 0 is no effect, 100 is complete control
Source text: as §1, §2

soybean (Glycine max) [17] = test: Test C preemergence, soybean; conditions: 0 is no effect, 100 is complete control
Source text: as §1, §2

soybean (Glycine max) [18] = test: Test C postemergence, soybean; conditions: visual injury, 0 to 100 scale (0 no effect, 100 complete control)
Source text: as §1, §2

[19] = system: blackgrass (Alopecurus myosuroides); test: Test C postemergence, blackgrass; conditions: visual injury, 0 to 100 scale (0 no effect, 100 complete control)
Source text: as §1, §2

corn (Zea mays) [20] = test: Test C postemergence, corn; conditions: visual injury, 0 to 100 scale (0 no effect, 100 complete control)
Source text: as §1, §2

[21] = system: pigweed, palmer (palmer amaranth, Amaranthus palmeri); test: Test C postemergence, palmer amaranth; conditions: visual injury, 0 to 100 scale (0 no effect, 100 complete control)
Source text: as §1, §2

[22] = system: ducksalad (Heteranthera limosa); test: Test D flooded paddy test, ducksalad; design: key: 0 = no effect, 100 = complete control; conditions: 250 g ai/ha, Flood; applied to paddy water at 2-leaf stage; visual rating after 13 days; scale 0 (no effect) to 100 (complete control)
Procedure: as §3

[23] = system: ragweed (common ragweed, Ambrosia artemisiifolia); test: Test C postemergence, ragweed; conditions: visual injury, 0 to 100 scale (0 no effect, 100 complete control)
Source text: as §1, §2

rice (Oryza sativa) = test: Test D flooded paddy test, rice; design: key: 0 = no effect, 100 = complete control; conditions: 250 g ai/ha, Flood; applied to paddy water at 2-leaf stage; visual rating after 13 days; scale 0 (no effect) to 100 (complete control)
Procedure: as §3

kochia (Bassia scoparia) [24] = test: Test C preemergence, kochia; conditions: 0 is no effect, 100 is complete control
Source text: as §1, §2

[25] = system: barnyardgrass (Echinochloa crusgalli); test: Test D flooded paddy test, barnyardgrass; design: key: 0 = no effect, 100 = complete control; conditions: 250 g ai/ha, Flood; applied to paddy water at 2-leaf stage; visual rating after 13 days; scale 0 (no effect) to 100 (complete control)
Procedure: as §3

## Cc1cc(C)c(N(COC(=O)C(C)(C)C)S(=O)(=O)C(F)(F)F)cc1N1CCC(OCC2CCC2)C1=O (stereo not drawn) [Compound 56]
[1]; 31 g ai/ha Preemergence
  Plant response rating (0 to 100 scale), Goosegrass: 10
[1]; 125 g ai/ha Preemergence
  Plant response rating (0 to 100 scale), Goosegrass: 90
[2]; 31 g ai/ha Postemergence
  Wheat plant response rating: 0
[2]; 125 g ai/ha Postemergence
  Wheat plant response rating: 70
[3]; 31 g ai/ha Postemergence
  Oat, Wild plant response rating: 10
[3]; 125 g ai/ha Postemergence
  Oat, Wild plant response rating: 10
[4]; 31 g ai/ha Preemergence
  Plant response rating (0 to 100 scale), Foxtail, Giant: 0
[4]; 125 g ai/ha Preemergence
  Plant response rating (0 to 100 scale), Foxtail, Giant: 80
Corn (Zea mays) [5]; 31 g ai/ha Preemergence
  Plant response rating (0 to 100 scale), Corn: 0
Corn (Zea mays) [5]; 125 g ai/ha Preemergence
  Plant response rating (0 to 100 scale), Corn: 10
[6]; 31 g ai/ha Postemergence
  Foxtail, Giant plant response rating: 10
[6]; 125 g ai/ha Postemergence
  Foxtail, Giant plant response rating: 40
[7]; 31 g ai/ha Preemergence
  Plant response rating (0 to 100 scale), Oat, Wild: 0
[7]; 125 g ai/ha Preemergence
  Plant response rating (0 to 100 scale), Oat, Wild: 0
[8]; 31 g ai/ha Postemergence
  Ryegrass, Italian plant response rating: 0
[8]; 125 g ai/ha Postemergence
  Ryegrass, Italian plant response rating: 60
[9]; 31 g ai/ha Postemergence
  Horseweed plant response rating: 20
[9]; 125 g ai/ha Postemergence
  Horseweed plant response rating: 80
[10]; 31 g ai/ha Preemergence
  Plant response rating (0 to 100 scale), Ryegrass, Italian: 30
[10]; 125 g ai/ha Preemergence
  Plant response rating (0 to 100 scale), Ryegrass, Italian: 80
[11]; 31 g ai/ha Postemergence
  Goosegrass plant response rating: 0
[11]; 125 g ai/ha Postemergence
  Goosegrass plant response rating: 60
[12]; 31 g ai/ha Preemergence
  Plant response rating (0 to 100 scale), Ragweed: 0
[12]; 125 g ai/ha Preemergence
  Plant response rating (0 to 100 scale), Ragweed: 30
Kochia (Bassia scoparia) [13]; 31 g ai/ha Postemergence
  Kochia plant response rating: 0
Kochia (Bassia scoparia) [13]; 125 g ai/ha Postemergence
  Kochia plant response rating: 30
[14]
  Plant response rating, Sedge, Umbrella: 95
[15]; 31 g ai/ha Preemergence
  Plant response rating (0 to 100 scale), Pigweed, Palmer: 10
[15]; 125 g ai/ha Preemergence
  Plant response rating (0 to 100 scale), Pigweed, Palmer: 90
[16]; 31 g ai/ha Preemergence
  Plant response rating (0 to 100 scale), Wheat: 0
[16]; 125 g ai/ha Preemergence
  Plant response rating (0 to 100 scale), Wheat: 0
Soybean (Glycine max) [17]; 31 g ai/ha Preemergence
  Plant response rating (0 to 100 scale), Soybean: 0
Soybean (Glycine max) [17]; 125 g ai/ha Preemergence
  Plant response rating (0 to 100 scale), Soybean: 30
Soybean (Glycine max) [18]; 31 g ai/ha Postemergence
  Soybean plant response rating: 40
Soybean (Glycine max) [18]; 125 g ai/ha Postemergence
  Soybean plant response rating: 50
[19]; 31 g ai/ha Postemergence
  Blackgrass plant response rating: 0
[19]; 125 g ai/ha Postemergence
  Blackgrass plant response rating: 20
Corn (Zea mays) [20]; 31 g ai/ha Postemergence
  Corn plant response rating: 0
Corn (Zea mays) [20]; 125 g ai/ha Postemergence
  Corn plant response rating: 30
[21]; 31 g ai/ha Postemergence
  Pigweed, Palmer plant response rating: 0
[21]; 125 g ai/ha Postemergence
  Pigweed, Palmer plant response rating: 40
[22]
  Plant response rating, Ducksalad: 85
[23]; 31 g ai/ha Postemergence
  Ragweed plant response rating: 20
[23]; 125 g ai/ha Postemergence
  Ragweed plant response rating: 60
Rice (Oryza sativa)
  Plant response rating, Rice: 0
Kochia (Bassia scoparia) [24]; 31 g ai/ha Preemergence
  Plant response rating (0 to 100 scale), Kochia: 0
Kochia (Bassia scoparia) [24]; 125 g ai/ha Preemergence
  Plant response rating (0 to 100 scale), Kochia: 70
[25]
  Plant response rating, Barnyardgrass: 35
